Measured values taken from EPA's CvTdb concentration-time database.

How the values were obtained:
Rat [1] = assay: concentration in liver after dosing; conditions: oral
Rat [2] = assay: concentration in plasma after dosing; conditions: dosed: Fluorotelomer alcohol 8+2, 12 mg/kg, oral, Male, Harlan Sprague Dawley
Rat [3] = assay: concentration in brain after dosing; conditions: oral, Harlan Sprague Dawley
Rat [4] = assay: concentration in liver after dosing; conditions: 1 h; dosed: Fluorotelomer alcohol 8+2; 80 mg/kg; oral; Female; Harlan Sprague Dawley
Rat [5] = assay: concentration in plasma after dosing

O=C(O)C(F)(F)C(F)(F)C(F)(F)C(F)(F)C(F)(F)C(F)(F)C(F)(F)F [Perfluorooctanoic acid]
Conditions | concentration in brain [ng/g] | concentration in liver [ng/g]
Rat [1], 0.5 h, dosed: Fluorotelomer alcohol 8+2, 24 mg/kg, Male, Harlan Sprague Dawley | – | 325
Rat [1], 0.5 h, dosed: Fluorotelomer alcohol 8+2, 24 mg/kg, Male, Harlan Sprague Dawley - this seems too small | – | 211
Rat [1], 0.5 h, dosed: Fluorotelomer alcohol 8+2, 80 mg/kg, Female, Harlan Sprague Dawley | – | 434
Rat [1], 1 h, dosed: Fluorotelomer alcohol 8+2, 24 mg/kg, Male, Harlan Sprague Dawley | – | 751
Rat [1], 1 h, dosed: Fluorotelomer alcohol 8+2, 80 mg/kg, Female, Harlan Sprague Dawley | – | 816
Rat [1], 3 h, dosed: Fluorotelomer alcohol 8+2, 24 mg/kg, Male, Harlan Sprague Dawley | – | 1150
Rat [1], 3 h, dosed: Fluorotelomer alcohol 8+2, 80 mg/kg, Female, Harlan Sprague Dawley | – | 1540
Rat [1], 6 h, dosed: Fluorotelomer alcohol 8+2, 24 mg/kg, Male, Harlan Sprague Dawley | – | 1460
Rat [1], 6 h, dosed: Fluorotelomer alcohol 8+2, 80 mg/kg, Female, Harlan Sprague Dawley | – | 1970
Rat [1], 12 h, dosed: Fluorotelomer alcohol 8+2, 24 mg/kg, Male, Harlan Sprague Dawley | – | 2000
Rat [1], 12 h, dosed: Fluorotelomer alcohol 8+2, 80 mg/kg, Female, Harlan Sprague Dawley | – | 701
Rat [3], 3 h, dosed: Perfluorooctanoic acid, 12 mg/kg, Male | 1300 | –
Rat [3], 3 h, dosed: Perfluorooctanoic acid, 80 mg/kg, Female | 916 | –
Rat [3], 6 h, dosed: Perfluorooctanoic acid, 12 mg/kg, Male | 1140 | –
Rat [3], 6 h, dosed: Perfluorooctanoic acid, 80 mg/kg, Female | 4050 | –
Rat [3], 12 h, dosed: Perfluorooctanoic acid, 12 mg/kg, Male | 1390 | –
Rat [3], 12 h, dosed: Perfluorooctanoic acid, 80 mg/kg, Female | 1360 | –
Rat [3], 24 h, dosed: Perfluorooctanoic acid, 12 mg/kg, Male | 1080 | –
Rat [3], 192 h, dosed: Perfluorooctanoic acid, 12 mg/kg, Male | 584 | –

Conditions | concentration in liver [ng/g] | concentration in plasma [ng/mL]
Rat [1], 3 h, dosed: Perfluorooctanoic acid, 12 mg/kg, Male, Harlan Sprague Dawley | 49900 | –
Rat [1], 3 h, dosed: Perfluorooctanoic acid, 80 mg/kg, Female, Harlan Sprague Dawley | 35300 | –
Rat [1], 6 h, dosed: Perfluorooctanoic acid, 12 mg/kg, Male, Harlan Sprague Dawley | 51000 | –
Rat [1], 6 h, dosed: Perfluorooctanoic acid, 80 mg/kg, Female, Harlan Sprague Dawley | 197000 | –
Rat [1], 12 h, dosed: Perfluorooctanoic acid, 12 mg/kg, Male, Harlan Sprague Dawley | 65600 | –
Rat [1], 12 h, dosed: Perfluorooctanoic acid, 80 mg/kg, Female, Harlan Sprague Dawley | 52000 | –
Rat [1], 24 h, dosed: Perfluorooctanoic acid, 12 mg/kg, Male, Harlan Sprague Dawley | 64800 | –
Rat [1], 24 h, dosed: Perfluorooctanoic acid, 80 mg/kg, Female, Harlan Sprague Dawley | 7890 | –
Rat [1], 48 h, dosed: Perfluorooctanoic acid, 80 mg/kg, Female, Harlan Sprague Dawley | 573 | –
Rat [1], 192 h, dosed: Perfluorooctanoic acid, 12 mg/kg, Male, Harlan Sprague Dawley | 48600 | –
Rat [1], 528 h, dosed: Perfluorooctanoic acid, 12 mg/kg, Male, Harlan Sprague Dawley | 14900 | –
Rat [1], 528 h, dosed: Perfluorooctanoic acid, 12 mg/kg, Male, Harlan Sprague Dawley - this seems too small | 22600 | –
Rat [1], 1200 h, dosed: Perfluorooctanoic acid, 12 mg/kg, Male, Harlan Sprague Dawley | 2160 | –
Rat [5], 0.25 h, dosed: 678-39-7, 12 mg/kg, iv, Male, F344 | – | 184
Rat [5], 0.25 h, dosed: 678-39-7, 40 mg/kg, iv, Male, F344 | – | 257000
Rat [5], 0.25 h, dosed: Fluorotelomer alcohol 8+2, 12 mg/kg, oral, Male, Harlan Sprague Dawley | – | 14.2
Rat [5], 0.5 h, dosed: 678-39-7, 12 mg/kg, iv, Male, F344 | – | 282
Rat [5], 0.5 h, dosed: 678-39-7, 40 mg/kg, iv, Female, Harlan Sprague-Dawley | – | 1570
Rat [5], 0.5 h, dosed: 678-39-7, 40 mg/kg, iv, Male, F344 | – | 1510
Rat [5], 0.5 h, dosed: Fluorotelomer alcohol 8+2, 12 mg/kg, oral, Male, Harlan Sprague Dawley | – | 68.8
Rat [5], 0.75 h, dosed: 678-39-7, 12 mg/kg, iv, Male, F344 | – | 203
Rat [5], 5 min, dosed: 678-39-7, 12 mg/kg, iv, Male, F344 | – | 29.7
Rat [5], 5 min, dosed: 678-39-7, 40 mg/kg, iv, Male, F344 | – | 189

Rat [2]
Conditions | concentration in plasma [ng/mL]
48 h | 657
192 h | 424

Conditions | concentration in brain [ng/g]
Rat [3], 6 h, dosed: Fluorotelomer alcohol 8+2, 80 mg/kg, Female | 224

Conditions | concentration in liver [ng/g]
Rat [4] | 601
